Data taken from PubChem BioAssay (NCI).
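Here, GI50 denotes the concentration required for 50% inhibition of growth. At the TGI there is no net growth.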

How the values were obtained:
Test in all cases: inhibition of tumour cell growth, NCI panel, 384-well format
786-0 renal = test system: 786-0 renal
A498 renal = test system: A498 renal
ACHN renal = test system: ACHN renal
BT-549 breast = test system: BT-549 breast
DU-145 prostate = test system: DU-145 prostate
HCC-2998 colon = test system: HCC-2998 colon
HCT-116 colon = test system: HCT-116 colon
HCT-15 colon = test system: HCT-15 colon
HL-60(TB) leukemia = test system: HL-60(TB) leukemia
HOP-62 NSCLC = test system: HOP-62 NSCLC
HOP-92 NSCLC = test system: HOP-92 NSCLC
HT29 colon = test system: HT29 colon
IGROV1 ovarian = test system: IGROV1 ovarian
K-562 leukemia = test system: K-562 leukemia
KM12 colon = test system: KM12 colon
LOX IMVI melanoma = test system: LOX IMVI melanoma
M14 melanoma = test system: M14 melanoma
MALME-3M melanoma = test system: MALME-3M melanoma
MCF7 breast = test system: MCF7 breast
MDA-MB-231 breast = test system: MDA-MB-231 breast
MDA-MB-435 melanoma = test system: MDA-MB-435 melanoma
MOLT-4 leukemia = test system: MOLT-4 leukemia
NCI-H226 lung = test system: NCI-H226 lung
NCI-H23 lung = test system: NCI-H23 lung
NCI-H322M lung = test system: NCI-H322M lung
NCI/ADR-RES ovarian = test system: NCI/ADR-RES ovarian
OVCAR-4 ovarian = test system: OVCAR-4 ovarian
OVCAR-5 ovarian = test system: OVCAR-5 ovarian
OVCAR-8 ovarian = test system: OVCAR-8 ovarian
PC-3 prostate = test system: PC-3 prostate
RPMI-8226 leukemia = test system: RPMI-8226 leukemia
RXF 393 renal = test system: RXF 393 renal
SF-268 CNS = test system: SF-268 CNS
SF-295 CNS = test system: SF-295 CNS
SF-539 CNS = test system: SF-539 CNS
SK-MEL-2 melanoma = test system: SK-MEL-2 melanoma
SK-MEL-28 melanoma = test system: SK-MEL-28 melanoma
SK-MEL-5 melanoma = test system: SK-MEL-5 melanoma
SK-OV-3 ovarian = test system: SK-OV-3 ovarian
SN12C renal = test system: SN12C renal
SNB-75 CNS = test system: SNB-75 CNS
SR leukemia = test system: SR leukemia
SW-620 colon = test system: SW-620 colon
T-47D breast = test system: T-47D breast
U251 glioblastoma = test system: U251 glioblastoma
UACC-62 melanoma = test system: UACC-62 melanoma
UO-31 renal = test system: UO-31 renal

In the case of COc1cc2c(Nc3cc(Cl)c(OC)c(Cl)c3)c(C#N)cnc2cc1OCCCN1CCN(C)CC1, the GI50 ([…]-0 renal) was 672 nM, the TGI (786-0 renal) was 1990 nM and the GI50 (A498 renal) was 257 nM. It also gave a TGI (A498 renal) of 1400 nM, a GI50 (ACHN renal) of 257 nM and a TGI (ACHN renal) of 1500 nM. The GI50 (BT-549 breast) was 785 nM, the TGI (BT-549 breast) was 2080 nM and the GI50 (DU-145 prostate) was 843 nM. The TGI (DU-145 prostate) was 2290 nM, the GI50 (HCC-2998 colon) was 1060 nM and the TGI (HCC-2998 colon) was 2260 nM. The GI50 (HCT-116 colon) was 329 nM, the TGI (HCT-116 colon) was 1200 nM and the GI50 (HCT-15 colon) was 878 nM. For the same compound, the TGI (HCT-15 colon) was 2170 nM, the GI50 (HL-60(TB) leukemia) was 795 nM and the TGI (HL-60(TB) leukemia) was 2060 nM. The GI50 (HOP-62 NSCLC) was 1090 nM, the TGI (HOP-62 NSCLC) was 2440 nM and the GI50 (HOP-92 NSCLC) was 465 nM. The TGI (HOP-92 NSCLC) was 1490 nM, the GI50 (HT29 colon) was 1630 nM and the TGI (HT29 colon) was 4360 nM. It also gave a GI50 (IGROV1 ovarian) of 145 nM, a TGI (IGROV1 ovarian) of 1030 nM and a GI50 (K-562 leukemia) of 166 nM. It also gave a TGI (K-562 leukemia) of 330 nM, a GI50 (KM12 colon) of 412 nM and a TGI (KM12 colon) of 1580 nM. For the same compound, the GI50 (LOX IMVI melanoma) was 1230 nM, the TGI (LOX IMVI melanoma) was 2490 nM and the GI50 (M14 melanoma) was 191 nM. It also gave a TGI (M14 melanoma) of 633 nM, a GI50 (MALME-3M melanoma) of 296 nM and a TGI (MALME-3M melanoma) of 1160 nM. The GI50 (MCF7 breast) was 451 nM, the TGI (MCF7 breast) was 1860 nM and the GI50 (MDA-MB-231 breast) was 1360 nM. For the same compound, the TGI (MDA-MB-231 breast) was 2920 nM, the GI50 (MDA-MB-435 melanoma) was 256 nM and the TGI (MDA-MB-435 melanoma) was 925 nM. For the same compound, the GI50 (MOLT-4 leukemia) was 163 nM, the TGI (MOLT-4 leukemia) was 313 nM and the GI50 (NCI-H226 lung) was 1280 nM. For the same compound, the TGI (NCI-H226 lung) was 2960 nM, the GI50 (NCI-H23 lung) was 401 nM and the TGI (NCI-H23 lung) was 1480 nM. For the same compound, the GI50 (NCI-H322M lung) was 234 nM, the TGI (NCI-H322M lung) was 1110 nM and the GI50 (NCI/ADR-RES ovarian) was 1830 nM. For the same compound, the TGI (NCI/ADR-RES ovarian) was 3640 nM, the GI50 (OVCAR-4 ovarian) was 808 nM and the TGI (OVCAR-4 ovarian) was 2170 nM. The GI50 (OVCAR-5 ovarian) was 1200 nM, the TGI (OVCAR-5 ovarian) was 2700 nM and the GI50 (OVCAR-8 ovarian) was 389 nM. For the same compound, the TGI (OVCAR-8 ovarian) was 1530 nM, the GI50 (PC-3 prostate) was 1320 nM and the TGI (PC-3 prostate) was 2880 nM. It also gave a GI50 (RPMI-8226 leukemia) of 184 nM, a TGI (RPMI-8226 leukemia) of 366 nM and a GI50 (RXF 393 renal) of 221 nM. It also gave a TGI (RXF 393 renal) of 677 nM, a GI50 (SF-268 CNS) of 604 nM and a TGI (SF-268 CNS) of 2060 nM. It also gave a GI50 (SF-295 CNS) of 909 nM, a TGI (SF-295 CNS) of 2150 nM and a GI50 (SF-539 CNS) of 222 nM. It also gave a TGI (SF-539 CNS) of 484 nM, a GI50 (SK-MEL-2 melanoma) of 456 nM and a TGI (SK-MEL-2 melanoma) of 1350 nM. For the same compound, the GI50 (SK-MEL-28 melanoma) was 1440 nM, the TGI (SK-MEL-28 melanoma) was 2800 nM and the GI50 (SK-MEL-5 melanoma) was 464 nM. For the same compound, the TGI (SK-MEL-5 melanoma) was 1550 nM, the GI50 (SK-OV-3 ovarian) was 167 nM and the TGI (SK-OV-3 ovarian) was 1420 nM. It also gave a GI50 (SN12C renal) of 321 nM, a TGI (SN12C renal) of 1430 nM and a GI50 (SNB-75 CNS) of 1270 nM. It also gave a TGI (SNB-75 CNS) of 2540 nM, a GI50 (SR leukemia) of 195 nM and a TGI (SR leukemia) of 377 nM. It also gave a GI50 (SW-620 colon) of 1220 nM, a TGI (SW-620 colon) of 2520 nM and a GI50 (T-47D breast) of 1330 nM. The TGI (T-47D breast) was 2630 nM, the GI50 (U251 glioblastoma) was 1240 nM and the TGI (U251 glioblastoma) was 2510 nM. It also gave a GI50 (UACC-62 melanoma) of 1230 nM, a TGI (UACC-62 melanoma) of 2480 nM and a GI50 (UO-31 renal) of 605 nM. For the same compound, the TGI (UO-31 renal) was 1850 nM.
